Each structure is given as a SMILES string. Bounds are passed on as bounds.

Data on twelve compounds can be found in paper PMC6222820, “Synthesis of New Triarylpyrazole Derivatives Possessing Terminal Sulfonamide Moiety and Their Inhibitory Effects on PGE2 and Nitric Oxide Productions in Lipopolysaccharide-Induced RAW 264.7 Macrophages” (Molecules : A Journal of Synthetic Chemistry and Natural …, 2018).

The subject of data set [1] is LPS-induced RAW 264.7 macrophages. Nature of the data set: PGE2 production inhibition in LPS-induced RAW 264.7 macrophages. It counts as cell-based. The note with it: Mus musculus, means ± SD of three independent experiments; for inhibition at 1 µM: RAW264.7, 1 μM; for inhibition at 5 µM: RAW264.7, 5 μM; for inhibition at 10 µM: RAW264.7, 10 μM; for IC50: RAW264.7, LPS-induced RAW 264.7 macrophages. Here is the method: Compounds 1b, 1g, 2a, and 2c were able to inhibit more than 50% of the prostaglandin production at a dose 5 μM. The five compounds were able to reduce PGE2 production by over 75% at a dose of 10 μM.
(§1) Cell culture and sample treatment were performed as reported in the literature. The 3-(4,5-dimethylthiazol-2-yl)-2,5-diphenyltetrazolium bromide (MTT) assay for cell viability followed the procedure previously described in the literature. Nitrite determination was carried as described in the literature, and the PGE2 assay was carried as previously described.

The nature of data set [2]: MTT assay for cell viability / cytotoxicity. It counts as cell-based. The conditions noted are these: mouse, RAW 264.7 macrophages, means ± SD of three independent experiments. Here is the method: In addition to NO inhibition, the cytotoxic activity of compounds 1a–i, 2a–i, 3a–h, and 4a–h in RAW 264.7 macrophages were measured using the 3-(4,5-dimethylthiazol-2-yl)-2,5-diphenyltetrazolium bromide (MTT) assay to check whether the effects on the production of NO was caused by nonspecific cytotoxicity.
as §1
(Tetrazolium dyes change colour on reduction, which living cells bring about.)

The subject of data set [3] is LPS-induced RAW 264.7 macrophages. Description: Nitric oxide (NO) production inhibition in LPS-induced RAW 264.7 macrophages (nitrite determination). It counts as cell-based. The conditions noted are these: Mus musculus; for inhibition at 1 µM: RAW264.7, 1 µM; for inhibition at 1 µM / inhibition at 5 µM / inhibition at 10 µM: LPS-induced RAW 264.7 macrophages; for inhibition at 5 µM: RAW264.7, 5 µM; for inhibition at 10 µM: RAW264.7, 10 µM; for IC50: RAW264.7, nitric oxide production, means ± SD of three independent experiments, read-out: NO (IC50). Here is the method:
The ability of a certain molecule to inhibit the production of inflammatory mediator(s) is one of successful approach to treatment both chronic and acute inflammation.
as §1

One may read the melting point as the temperature of the solid-liquid transition. As a reminder, the inhibition is the percentage by which the read-out fell short of the control. High values mean strong suppression, low ones little suppression. Broadly, the IC50 is the concentration needed to halve the response being measured. As for `COc1cccc(-c2nn(-c3ccccc3)cc2-c2ccnc(NCCCNS(=O)(=O)c3ccccc3)c2)c1` [Compound 2a, N-(3-((4-(3-(3-Methoxyphenyl)-1-phenyl-1H-pyrazol-4-yl)pyridin-2-yl)amino)propyl)benzenesulfonamide], the melting point is 119 to 120 °C. Besides, in data set [1], the inhibition at 1 µM was determined as 31.1 ± 1.14%, the inhibition at 5 µM was above 50%, the inhibition at 10 µM worked out at 76.9 ± 4.99% and the 50% inhibitory concentration (IC50) was 4.87 ± 0.44 µM. The 50% inhibitory concentration (IC50) in data set [2] worked out at 346 ± 4.21 µM. Further, in data set [3], testing at 1 µM gave an inhibition of 0.17 ± 0.03%, the inhibition at 5 µM stood at 30.2 ± 0.27%, at 10 µM the inhibition was 62.8 ± 3.25% and the IC50 was found to be 8.04 ± 0.09 µM.

`COc1cccc(-c2nn(-c3ccccc3)cc2-c2ccnc(NCCCNS(=O)(=O)c3ccc(Cl)cc3)c2)c1` [Compound 2c, 4-Chloro-N-(3-((4-(3-(3-methoxyphenyl)-1-phenyl-1H-pyrazol-4-yl)pyridin-2-yl)amino)propyl)benzenesulfonamide] showed a melting point of 98 to 100 °C. In data set [1], this compound showed an inhibition at 1 µM of 17.5 ± 1.51%, an inhibition at 5 µM above 50%, an inhibition at 10 µM of 81.4 ± 2.94% and an IC50 of 4.68 ± 0.37 µM. The same compound had an IC50 in data set [2] of 289.9 ± 1.87 µM. For the same compound, in data set [3], testing at 1 µM gave an inhibition of 0.02 ± 0.01%, the inhibition at 5 µM is 24.7 ± 0.81%, testing at 10 µM gave an inhibition of 59.1 ± 0.93% and the IC50 turned out to be 8.68 ± 0.22 µM.

In turn, `O=S(=O)(NCCNc1cc(-c2cn(-c3ccccc3)nc2-c2cccc(O)c2)ccn1)c1ccc(Br)cc1` [Compound 3b, 4-Bromo-N-(2-((4-(3-(3-hydroxyphenyl)-1-phenyl-1H-pyrazol-4-yl)pyridin-2-yl)amino)ethyl)benzenesulfonamide] yielded a melting point of 178 to 180 °C. For the same compound, the concentration for half-maximal inhibition (IC50) in data set [2] is 24.3 ± 0.41 µM. Further, in data set [3], the inhibition at 1 µM turned out to be 15.8 ± 0.16%, the inhibition at 5 µM turned out to be 24.4 ± 0.52%, the inhibition at 10 µM came to 48.7 ± 1.74% and the IC50 is 10.6 ± 0.51 µM.

Turning to `O=S(=O)(NCCNc1cc(-c2cn(-c3ccccc3)nc2-c2cccc(O)c2)ccn1)c1ccc(Cl)cc1` [Compound 3c, 4-Chloro-N-(2-((4-(3-(3-hydroxyphenyl)-1-phenyl-1H-pyrazol-4-yl)pyridin-2-yl)amino)ethyl)benzenesulfonamide], the melting point lay within 100 to 102 °C. Moreover, in data set [2], half-maximal inhibition (IC50) was put at 22.7 ± 0.3 µM. In data set [3], testing at 1 µM gave an inhibition of 6.34 ± 0.06%, the inhibition at 5 µM was determined as 11.7 ± 0.71%, the inhibition at 10 µM is 33.8 ± 0.89% and the concentration for half-maximal inhibition (IC50) turned out to be 15.2 ± 0.17 µM.

As for `O=S(=O)(NCCNc1cc(-c2cn(-c3ccccc3)nc2-c2cccc(O)c2)ccn1)c1ccc(F)cc1` [Compound 3d, 4-Fluoro-N-(2-((4-(3-(3-hydroxyphenyl)-1-phenyl-1H-pyrazol-4-yl)pyridin-2-yl)amino)ethyl)benzenesulfonamide], the melting point was 106 to 108 °C. The half-inhibitory concentration (IC50) in data set [2] stood at 26.6 ± 0.47 µM. For the same compound, in data set [3], at 1 µM the inhibition was 10.58 ± 0.09%, the inhibition at 5 µM was 18.3 ± 0.26%, the inhibition at 10 µM turned out to be 48.2 ± 0.74% and the IC50 is 10.7 ± 0.52 µM.

Turning to `Cc1ccc(S(=O)(=O)NCCNc2cc(-c3cn(-c4ccccc4)nc3-c3cccc(O)c3)ccn2)cc1` [Compound 3e, N-(2-((4-(3-(3-Hydroxyphenyl)-1-phenyl-1H-pyrazol-4-yl)pyridin-2-yl)amino)ethyl)-4-methylbenzenesulfonamide], the melting point is 114 to 116 °C. Also, the midpoint of inhibition in data set [2], the IC50, lay at 32.5 ± 0.75 µM. In data set [3], 1 µM produced 7.15 ± 0.04% inhibition, the inhibition at 5 µM was determined as 12.4 ± 0.72%, testing at 10 µM gave an inhibition of 31.4 ± 0.33% and the concentration for half-maximal inhibition (IC50) turned out to be 16.1 ± 0.72 µM.

`O=S(=O)(NCCNc1cc(-c2cn(-c3ccccc3)nc2-c2cccc(O)c2)ccn1)c1cccc(F)c1` [Compound 3g, 3-Fluoro-N-(2-((4-(3-(3-hydroxyphenyl)-1-phenyl-1H-pyrazol-4-yl)pyridin-2-yl)amino)ethyl)benzenesulfonamide] gave a melting point of 146 to 148 °C. This compound yielded an IC50 in data set [2] of 28.7 ± 0.74 µM. In data set [3], the inhibition at 1 µM is 16.2 ± 0.17%, the inhibition at 5 µM turned out to be 19.1 ± 0.89%, 10 µM produced 37.7 ± 0.85% inhibition and the 50% inhibitory concentration (IC50) stood at 21.42 ± 0.17 µM.

Take `O=S(=O)(NCCCNc1cc(-c2cn(-c3ccccc3)nc2-c2cccc(O)c2)ccn1)c1ccccc1` [Compound 4a, N-(3-((4-(3-(3-Hydroxyphenyl)-1-phenyl-1H-pyrazol-4-yl)pyridin-2-yl)amino)propyl)benzenesulfonamide]: the melting point fell in the range of 154 to 156 °C. The compound also gave a 50% inhibitory concentration (IC50) in data set [2] of 16.6 ± 0.91 µM. For the same compound, in data set [3], testing at 1 µM gave an inhibition of 11.11 ± 0.1%, testing at 5 µM gave an inhibition of 24.1 ± 0.56%, the inhibition at 10 µM is 59.2 ± 1.31% and the 50% inhibitory concentration (IC50) was found to be 8.86 ± 0.36 µM.

The compound `O=S(=O)(NCCCNc1cc(-c2cn(-c3ccccc3)nc2-c2cccc(O)c2)ccn1)c1ccc(Cl)cc1` [Compound 4c, 4-Chloro-N-(3-((4-(3-(3-hydroxyphenyl)-1-phenyl-1H-pyrazol-4-yl)pyridin-2-yl)amino)propyl)benzenesulfonamide] came in with a melting point of 166 to 168 °C. Also, in data set [2], the IC50 is 18.8 ± 0.68 µM. In addition, in data set [3], testing at 1 µM gave an inhibition of 0.86 ± 0.09%, the inhibition at 5 µM turned out to be 22 ± 0.42%, testing at 10 µM gave an inhibition of 47 ± 1.34% and the IC50 was 13.2 ± 0.52 µM.

On to `Cc1ccc(S(=O)(=O)NCCCNc2cc(-c3cn(-c4ccccc4)nc3-c3cccc(O)c3)ccn2)cc1` [Compound 4e, N-(3-((4-(3-(3-Hydroxyphenyl)-1-phenyl-1H-pyrazol-4-yl)pyridin-2-yl)amino)propyl)-4-methylbenzenesulfonamide], for which the melting point lay in the range of 158 to 160 °C. The same compound displayed a half-inhibitory concentration (IC50) in data set [2] of 23 ± 0.63 µM. In data set [3], the inhibition at 1 µM came to 0.69 ± 0.01%, 5 µM produced 18.6 ± 0.98% inhibition, testing at 10 µM gave an inhibition of 59.7 ± 0.7% and the concentration for half-maximal inhibition (IC50) is 8.82 ± 0.32 µM.

For `O=S(=O)(NCCCNc1cc(-c2cn(-c3ccccc3)nc2-c2cccc(O)c2)ccn1)c1cccc(F)c1` [Compound 4g, 3-Fluoro-N-(3-((4-(3-(3-hydroxyphenyl)-1-phenyl-1H-pyrazol-4-yl)pyridin-2-yl)amino)propyl)benzenesulfonamide], the melting point fell in the range of 120 to 122 °C. The compound also displayed a concentration for half-maximal inhibition (IC50) in data set [2] of 9.35 ± 0.32 µM. In addition, in data set [3], at 5 µM the inhibition was 29.5 ± 0.86%, the inhibition at 10 µM turned out to be 51.1 ± 1.45% and the IC50 stood at 8.24 ± 0.41 µM.

For the compound `CS(=O)(=O)Nc1ccc([N+](=O)[O-])cc1OC1CCCCC1` [NS-398, N-(2-cyclohexyloxy-4-nitrophenyl)methanesulfonamide, reference compound], in data set [1], the inhibition at 1 µM was found to be 90.53 ± 0.53%, the inhibition at 5 µM came to 95.78 ± 0.67%, the inhibition at 10 µM was 98.2 ± 1.5% and 0.00625 µM corresponded to half-maximal inhibition (IC50).
